Experimental data as given in patent US9861616B2, “Methods for treating respiratory diseases and formulations therefor” (priority 2013, dated 2018).
pIC50: −log10 of the molar value. ≈ marks a conversion by molar mass, not a printed value.

Key:
[1] = tested on: P. aeruginosa (PA); assay: MIC by microdilution, 36 clinical and laboratory strains with known efflux phenotype; type: cell-based
Outline: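 Microdilution MICs against P. aeruginosa, including reference PAO1 and efflux-overexpressing clinical PA12, in cation-adjusted Mueller-Hinton broth or RPMI with 10% fetal calf serum, or MH broth with increasing serum. PaβN (50 mg/L) served as efflux inhibitor and EGTA (5 mM) as outer-membrane disruptor.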

[2] = tested on: TNFα release; assay: LPS-induced TNFα release in PMA-differentiated U937 cells (ELISA); type: cell-based, human
Outline: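 U937 cells differentiated to macrophage-like state with PMA (50 ng/mL, 48 h) in RPMI/10% FBS, then stimulated with LPS in presence of macrolides. TNFα in supernatant measured by sandwich ELISA; means±SEM of three experiments, IC50 computed from cytokine inhibition.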

[3] = tested on: MMP9 activity; assay: PMA-induced MMP9 activation in U937 cells (gelatin zymography); type: cell-based, human
Method: Effects of macrolides on phorbol 12-myristate 13-acetate (PMA)-induced MMP9 activation in U937 cells. […] After 48 h supernatants were collected for zymography. MMP9 enzyme activity was measured by gelatin zymography. Data are expressed relative to standard.
The human monocytic cell line U937 was obtained from the American Type Culture Collection (ATCC, Rockville, Md.). PBMCs from COPD patients were obtained from Brompton hospital and separated by AccuSPIN (Sigma-Aldrich). Cells were cultured in complete growth medium (RPMI 1640) (Sigma-Aldrich) supplemented with 10% fetal bovine serum (FBS) and 1% L-glutamine at 37° C. in a humidified atmosphere with 5% CO2. U937 cells were differentiated into adherent macrophage-like morphology by exposure to PMA (50 ng/mL) for 48 hrs in complete growth medium. Cell viability was assessed microscopically by trypan blue staining. Cell toxicity was determined by MTT assay as needed. This study was approved by the ethics committee of the Royal Brompton Hospitals, and all subjects gave written informed consent.
MMP9 enzyme activity was measured by gelatin zymography. Cell culture supernatants were diluted with equal amount of Laemli sample buffer (Bio-Rad, Hertfordshire, UK) and loaded on a Novex® 10% Zymogram (Gelatin) gel (Invitrogen Ltd, Paisley, UK). After electrophoresis, gels were incubated and rinsed with Novex® zymogram renaturing buffer (Invitrogen) for 30 min at room temperature. The gels were then rinsed in Novex® zymogram developing buffer (Invitrogen) for 30 min at room temperature prior to overnight incubation in the developing buffer at 37° C. After incubation, the gels were stained using a Colloidal Blue Staining Kit (Invitrogen) to visualize the zymogen bands.
The results were expressed as the mean±SEM. Comparisons of data in two groups were performed using the Student's t test or the Wilcoxon signed rank test. Multiple comparisons were made by one-way ANOVA with post hoc test (Dunnett's) as appropriate. The difference was considered significant at p<0.05. IC50 values (50% inhibitory concentration) for macrolides for production of cytokines or MMP9 were calculated using Prism 4.0 (GraphPad Software Inc., San Diego, Calif.).

For `CC[C@H]1OC(=O)[C@H](C)[C@@H](O[C@H]2C[C@@](C)(OC)[C@@H](O)[C@H](C)O2)[C@H](C)[C@@H](O[C@@H]2O[C@H](C)C[C@H](N(C)C)[C@H]2O)[C@](C)(O)C[C@@H](C)C(=O)[C@H](C)[C@@H](O)[C@]1(C)O` [ERY, erythromycin], the MIC ([1]; strain 1, efflux AB+, MHB) was 512 µg/mL (≈ 698 µM), the MIC ([1]; strain 1, efflux AB+, RPMI) was 8 µg/mL (≈ 10.9 µM) and the MIC ([1]; strain 2, efflux CD+, MHB) was 512 µg/mL (≈ 698 µM). It also gave an MIC ([1]; strain 3, efflux EF+, RPMI) of 8 µg/mL (≈ 10.9 µM), an MIC ([1]; strain 4, efflux XY+, MHB) of 512 µg/mL (≈ 698 µM) and an MIC ([1]; strain 4, efflux XY+, RPMI) of 32 µg/mL (≈ 43.6 µM). For the same compound, the MIC ([1]; strain 11, efflux AB + CD+, RPMI) was 16 µg/mL, the MIC ([1]; strain 12, efflux AB + CD + EF + XY+, MHB) was 512 µg/mL and the MIC ([1]; strain 12, efflux AB + CD + EF + XY+, RPMI) was 32 µg/mL. It also gave an MIC ([1]; strain 16, efflux AB + XY+, MHB) of 512 µg/mL, an MIC ([1]; strain 16, efflux AB + XY+, RPMI) of 32 µg/mL and an MIC ([1]; strain 21, efflux AB+, MHB) of 512 µg/mL (≈ 698 µM). It also gave an MIC ([1]; strain 21, efflux AB+, RPMI) of 64 µg/mL (≈ 87.2 µM), an MIC ([1]; strain 22, efflux XY+, MHB) of 512 µg/mL (≈ 698 µM) and an MIC ([1]; strain 22, efflux XY+, RPMI) of 32 µg/mL (≈ 43.6 µM). It also gave an MIC ([1]; strain 40, efflux EF+, RPMI) of 32 µg/mL (≈ 43.6 µM), an MIC ([1]; strain 41, efflux CD+, MHB) of 512 µg/mL (≈ 698 µM) and an MIC ([1]; strain 41, efflux CD+, RPMI) of 64 µg/mL (≈ 87.2 µM). For the same compound, the MIC ([1]; strain 48, efflux CD + EF + XY+, MHB) was 512 µg/mL, the MIC ([1]; strain 48, efflux CD + EF + XY+, RPMI) was 64 µg/mL and the MIC ([1]; strain 49, efflux CD + EF + XY+, MHB) was 512 µg/mL. The MIC ([1]; strain 49, efflux CD + EF + XY+, RPMI) was 64 µg/mL, the MIC ([1]; strain 63, efflux AB + EF + XY+, MHB) was 512 µg/mL and the MIC ([1]; strain 63, efflux AB + EF + XY+, RPMI) was 64 µg/mL. For the same compound, the MIC ([1]; strain 68, efflux AB + XY+, MHB) was 512 µg/mL, the MIC ([1]; strain 68, efflux AB + XY+, RPMI) was 64 µg/mL and the MIC ([1]; strain 133, efflux EF + XY+, MHB) was 512 µg/mL. The MIC ([1]; strain 133, efflux EF + XY+, RPMI) was 64 µg/mL, the MIC ([1]; strain 156, efflux EF + XY+, MHB) was 512 µg/mL and the MIC ([1]; strain 156, efflux EF + XY+, RPMI) was 16 µg/mL. For the same compound, the MIC ([1]; strain 168B, efflux CD + XY+, MHB) was 512 µg/mL, the MIC ([1]; strain 207, efflux AB + EF + XY+, MHB) was 512 µg/mL and the MIC ([1]; strain 266B, efflux AB + CD+, MHB) was 512 µg/mL. The MIC ([1]; strain 266B, efflux AB + CD+, RPMI) was 64 µg/mL, the MIC ([1]; strain 333A, efflux AB + EF+, MHB) was 512 µg/mL and the MIC ([1]; strain 333A, efflux AB + EF+, RPMI) was 64 µg/mL. The MIC ([1]; strain 335, efflux AB + EF+, MHB) was 512 µg/mL, the MIC ([1]; strain 335, efflux AB + EF+, RPMI) was 64 µg/mL and the MIC ([1]; strain 391, efflux EF−, RPMI) was 32 µg/mL (≈ 43.6 µM). For the same compound, the MIC ([1]; strain 392, efflux CD−, RPMI) was 16 µg/mL (≈ 21.8 µM), the MIC ([1]; strain 394, efflux XY−, MHB) was 512 µg/mL (≈ 698 µM) and the MIC ([1]; strain 394, efflux XY−, RPMI) was 32 µg/mL (≈ 43.6 µM). For the same compound, the MIC ([1]; strain 395, efflux HI−, RPMI) was 32 µg/mL (≈ 43.6 µM), the MIC ([1]; strain 396, ompH−, RPMI) was 16 µg/mL (≈ 21.8 µM) and the MIC ([1]; strain 397, efflux AB−, MHB) was 16 µg/mL (≈ 21.8 µM). The MIC ([1]; strain 397, efflux AB−, RPMI) was 2 µg/mL (≈ 2.73 µM), the MIC ([1]; strain 398, efflux CD−, MHB) was 16 µg/mL (≈ 21.8 µM) and the MIC ([1]; strain 398, efflux CD−, RPMI) was 4 µg/mL (≈ 5.45 µM). The MIC ([1]; strain 399, efflux AB − EF−, MHB) was 16 µg/mL (≈ 21.8 µM), the MIC ([1]; strain 399, efflux AB − EF−, RPMI) was 4 µg/mL (≈ 5.45 µM) and the MIC ([1]; strain 400, efflux XY−, MHB) was 16 µg/mL (≈ 21.8 µM). For the same compound, the MIC ([1]; strain 400, efflux XY−, RPMI) was 4 µg/mL (≈ 5.45 µM), the MIC ([1]; strain 401, ompH−, MHB) was 8 µg/mL (≈ 10.9 µM) and the MIC ([1]; strain 401, ompH−, RPMI) was 4 µg/mL (≈ 5.45 µM). For the same compound, the MIC ([1]; strain 403, efflux AB − CD − EF − XY−, MHB) was 16 µg/mL (≈ 21.8 µM), the MIC ([1]; strain 403, efflux AB − CD − EF − XY−, RPMI) was 4 µg/mL (≈ 5.45 µM) and the MIC ([1]; strain 405, efflux AB − CD − EF − XY−, MHB) was 8 µg/mL (≈ 10.9 µM). For the same compound, the MIC ([1]; strain 405, efflux AB − CD − EF − XY−, RPMI) was 4 µg/mL (≈ 5.45 µM), the MIC ([1]; strain 434, efflux AB + CD + XY+, MHB) was 512 µg/mL and the MIC ([1]; strain PAO1, REFERENCE, MHB) was 512 µg/mL (≈ 698 µM). The MIC ([1]; strain PAO1, REFERENCE, RPMI) was 32 µg/mL (≈ 43.6 µM), the “effect on TNFα production” value ([2]; 33 to 333 μM (FIG. 3)) was “did not inhibit” and the pIC50 ([2]; Homo sapiens, U-937, U937 cells, at 333 μM, read-out: IC50, LPS-induced TNFα release: NE at 333 μM) was under 3.48. The “effect on MMP9 activity” value [3] was “no effect” and the pIC50 ([3]; Homo sapiens, U-937, at 333 μM, read-out: IC50, PMA-induced MMP9 activation: NE at 333 μM) was under 3.48.
